Where two headings read alike, the source gives them in different places.
Molecular target: T1, BRM (Homo sapiens, UniProt P51531)
T1 construct: In-Cell Western Screen of BRM Degradation in SW1573 Cells; endogenous in cells; host or cells: SW1573
Experiment: In-cell Western screen of BRM degradation in SW1573 cells (Dmax and DC50)
Type: cell-based
Procedure, shortened: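 After adhering overnight, cells received compound for 18-20 hours. They were then washed in cold DPBS, fixed with 4% PFA for 20 min and permeabilized for 30 min. Blocking and fluorescent secondary staining followed before imaging.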

[1] = BRM degradation, SW1573 cells, read-out: DC50
[2] = BRM degradation, SW1573 cells, tested at the top concentration of between 0.3 and 10 μM, read-out: Dmax (%) (% degraded)
[3] = SW1573, % degraded, when tested at the top concentration of between 0.3 and 10 μM, read-out: BRM Dmax (%)
[4] = target protein degradation, read-out: BRM DC50

T1 sequence (P51531 whole entry): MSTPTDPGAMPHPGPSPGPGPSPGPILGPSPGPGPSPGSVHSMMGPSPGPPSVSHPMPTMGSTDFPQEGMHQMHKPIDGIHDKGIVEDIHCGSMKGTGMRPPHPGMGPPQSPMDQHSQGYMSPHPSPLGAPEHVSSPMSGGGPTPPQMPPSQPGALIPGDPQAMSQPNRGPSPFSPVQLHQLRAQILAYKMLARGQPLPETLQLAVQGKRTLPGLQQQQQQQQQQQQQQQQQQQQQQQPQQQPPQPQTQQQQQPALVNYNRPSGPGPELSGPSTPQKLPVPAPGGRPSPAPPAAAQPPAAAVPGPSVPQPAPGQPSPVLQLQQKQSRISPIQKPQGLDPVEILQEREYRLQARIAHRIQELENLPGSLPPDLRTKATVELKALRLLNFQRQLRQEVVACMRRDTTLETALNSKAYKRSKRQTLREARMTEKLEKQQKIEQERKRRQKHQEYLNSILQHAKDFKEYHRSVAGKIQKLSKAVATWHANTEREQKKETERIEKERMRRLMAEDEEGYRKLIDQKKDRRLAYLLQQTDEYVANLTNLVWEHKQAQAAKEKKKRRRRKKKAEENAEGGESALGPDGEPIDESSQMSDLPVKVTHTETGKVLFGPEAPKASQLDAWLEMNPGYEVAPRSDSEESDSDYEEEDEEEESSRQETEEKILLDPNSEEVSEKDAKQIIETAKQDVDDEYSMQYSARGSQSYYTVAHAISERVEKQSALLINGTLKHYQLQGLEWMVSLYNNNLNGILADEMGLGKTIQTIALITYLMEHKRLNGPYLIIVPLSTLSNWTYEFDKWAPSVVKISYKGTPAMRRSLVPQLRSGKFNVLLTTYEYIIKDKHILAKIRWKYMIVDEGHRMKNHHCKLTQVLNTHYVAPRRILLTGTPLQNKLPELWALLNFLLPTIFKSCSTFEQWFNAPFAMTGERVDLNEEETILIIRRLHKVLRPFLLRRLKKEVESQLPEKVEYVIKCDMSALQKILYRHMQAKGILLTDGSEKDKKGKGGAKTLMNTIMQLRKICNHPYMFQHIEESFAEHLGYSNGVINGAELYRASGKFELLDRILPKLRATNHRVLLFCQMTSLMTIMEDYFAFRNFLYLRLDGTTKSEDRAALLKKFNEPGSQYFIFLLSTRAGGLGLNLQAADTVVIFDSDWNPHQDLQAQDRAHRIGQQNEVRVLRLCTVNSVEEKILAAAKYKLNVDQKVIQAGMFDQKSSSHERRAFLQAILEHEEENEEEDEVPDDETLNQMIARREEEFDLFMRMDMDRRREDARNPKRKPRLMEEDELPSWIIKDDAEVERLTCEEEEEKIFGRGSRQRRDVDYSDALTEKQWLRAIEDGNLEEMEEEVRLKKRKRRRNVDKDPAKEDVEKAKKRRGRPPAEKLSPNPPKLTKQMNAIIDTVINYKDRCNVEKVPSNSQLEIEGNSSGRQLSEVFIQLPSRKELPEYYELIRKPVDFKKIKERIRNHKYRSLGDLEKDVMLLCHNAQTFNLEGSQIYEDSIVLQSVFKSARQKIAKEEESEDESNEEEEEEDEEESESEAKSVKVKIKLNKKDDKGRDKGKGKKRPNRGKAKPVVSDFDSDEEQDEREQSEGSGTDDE

Row | Structure (SMILES) | DC50 [1] [nM] | Dmax [2] [%] | other results
1 | Cc1ncsc1-c1ccc([C@H](C)NC(=O)[C@@H]2C[C@@H](O)CN2C(=O)[C@H](c2cc(OCCN3CCC4(CC3)CC(OCCN3CCOC5(CCN(c6cc(-c7ccccc7O)nnc6N)CC5)C3)C4)no2)C(C)C)cc1 [compound 164, (2S,4R)-1-((S)-2-(3-(2-(2-(2-(9-(3-amino-6-(2-hydroxyphenyl)pyridazin-4-yl)-1-oxa-4,9-diazaspiro[5.5]undecan-4-yl)ethoxy)-7-azaspiro[3.5]nonan-7-yl)ethoxy)isoxazol-5-yl)-3-methylbutanoyl)-4-hydroxy-N-((S)-1-(4-(4-methylthiazol-5-yl)phenyl)ethyl)pyrrolidine-2-carboxamide] | 10 to 30 | 50 to 75 | 
2 | COCC[C@@H](NC(=O)[C@@H]1C[C@@H](O)CN1C(=O)[C@@H](c1cc(N2CCC(CN3CCC(O[C@H]4C[C@H](Oc5cc(N6C7CCC6CN(c6cc(-c8ccccc8O)nnc6N)C7)ccn5)C4)CC3)CC2)no1)C(C)C)c1ccc(-c2scnc2C)cc1 [compound 669, (2S,4R)-1-((2R)-2-(3-(4-((4-((1r,3r)-3-((4-(3-(3-amino-6-(2-hydroxyphenyl)pyridazin-4-yl)-3,8-diazabicyclo[3.2.1]octan-8-yl)pyridin-2-yl)oxy)cyclobutoxy)piperidin-1-yl)methyl)piperidin-1-yl)isoxazol-5-yl)-3-methylbutanoyl)-4-hydroxy-N-((R)-3-methoxy-1-(4-(4-methylthiazol-5-yl)phenyl)propyl)pyrrolidine-2-carboxamide] | 10 to 30 |  | Dmax (BRM degradation, SW1573 cells, read-out: Dmax (% degraded)): 50 to 75%
3 | CC(C)[C@@H](C(=O)N1C[C@H](O)C[C@H]1C(=O)N[C@@H](C)c1ccc(-n2ccnn2)cc1)c1cc(OCCN2CCN(CCOc3cc(N4C5CCC4CN(c4cc(-c6ccccc6O)nnc4N)C5)ccn3)CC2)no1 [compound 293, (2S,4R)-N-((S)-1-(4-(1H-1,2,3-triazol-1-yl)phenyl)ethyl)-1-((2R)-2-(3-(2-(4-(2-((4-(3-(3-amino-6-(2-hydroxyphenyl)pyridazin-4-yl)-3,8-diazabicyclo[3.2.1]octan-8-yl)pyridin-2-yl)oxy)ethyl)piperazin-1-yl)ethoxy)isoxazol-5-yl)-3-methylbutanoyl)-4-hydroxypyrrolidine-2-carboxamide] | 2.5 to 10 | > 75 | 
4 | Cc1ncsc1-c1ccc([C@H](C)NC(=O)[C@@H]2C[C@@H](O)CN2C(=O)[C@@H](c2cc(OCCN3CCN(CCC#CCn4cc(-c5cc(-c6ccccc6O)nnc5N)cn4)CC3)no2)C(C)C)cn1 [compound 352, (2S,4R)-1-((R)-2-(3-(2-(4-(5-(4-(3-amino-6-(2-hydroxyphenyl)pyridazin-4-yl)-1H-pyrazol-1-yl)pent-3-yn-1-yl)piperazin-1-yl)ethoxy)isoxazol-5-yl)-3-methylbutanoyl)-4-hydroxy-N-((S)-1-(6-(4-methylthiazol-5-yl)pyridin-3-yl)ethyl)pyrrolidine-2-carboxamide] | < 2.5 | > 75 | 
5 | Cc1ncsc1-c1cc(F)c([C@@H](C)NC(=O)[C@@H]2C[C@@H](O)CN2C(=O)[C@H](c2cc(OCCN3CCC(O[C@H]4C[C@H](Oc5cc(N6C7CCC6CN(c6cc(-c8ccccc8O)nnc6N)C7)ccn5)C4)CC3)no2)C(C)C)cn1 [compound 542, (2S,4R)-1-((2S)-2-(3-(2-(4-((1r,3S)-3-((4-(3-(3-amino-6-(2-hydroxyphenyl)pyridazin-4-yl)-3,8-diazabicyclo[3.2.1]octan-8-yl)pyridin-2-yl)oxy)cyclobutoxy)piperidin-1-yl)ethoxy)isoxazol-5-yl)-3-methylbutanoyl)-N-((R)-1-(4-fluoro-6-(4-methylthiazol-5-yl)pyridin-3-yl)ethyl)-4-hydroxypyrrolidine-2-carboxamide] |  |  | DC50 (BRM degradation, SW1573 cells, Table 2D, read-out: *DC50): > 30 nM
6 | Cc1ncsc1-c1ccc([C@H](C)NC(=O)[C@@H]2C[C@@H](O)CN2C(=O)[C@@H](c2cc(OCC[C@H]3CCN(C[C@H]4C[C@H](Oc5cc(N6C7CCC6CN(c6cc(-c8ccccc8O)nnc6N)C7)ccn5)C4)[C@H](C)C3)no2)C(C)C)cc1 [compound 535, (2S,4R)-1-((2R)-2-(3-(2-((2R,4S)-1-(((1r,3R)-3-((4-(3-(3-amino-6-(2-hydroxyphenyl)pyridazin-4-yl)-3,8-diazabicyclo[3.2.1]octan-8-yl)pyridin-2-yl)oxy)cyclobutyl)methyl)-2-methylpiperidin-4-yl)ethoxy)isoxazol-5-yl)-3-methylbutanoyl)-4-hydroxy-N-((S)-1-(4-(4-methylthiazol-5-yl)phenyl)ethyl)pyrrolidine-2-carboxamide] |  |  | DC50 (BRM degradation, read-out: BRM DC50): < 2.5 nM; Dmax [3]: > 75%
7 | Cc1ncsc1-c1ccc([C@H](CN)NC(=O)[C@@H]2C[C@@H](O)CN2C(=O)[C@H](c2cc(OCCN3CCN(CCOc4cc(N5C6CCC5CN(c5cc(-c7ccccc7O)nnc5N)C6)ccn4)CC3)no2)C(C)C)cc1 [compound 290, (2S,4R)-N-((R)-2-amino-1-(4-(4-methylthiazol-5-yl)phenyl)ethyl)-1-((2S)-2-(3-(2-(4-(2-((4-(3-(3-amino-6-(2-hydroxyphenyl)pyridazin-4-yl)-3,8-diazabicyclo[3.2.1]octan-8-yl)pyridin-2-yl)oxy)ethyl)piperazin-1-yl)ethoxy)isoxazol-5-yl)-3-methylbutanoyl)-4-hydroxypyrrolidine-2-carboxamide] | > 30 |  | 
8 | Cc1ncsc1-c1ccc([C@H](C)NC(=O)[C@@H]2C[C@@H](O)CN2C(=O)[C@H](c2cc(N3CCC(OC4CCN(C[C@H]5C[C@H](Oc6cc(N7C8CCC7CN(c7cc(-c9ccccc9O)nnc7N)C8)ccn6)C5)CC4)CC3)no2)C(C)C)cn1 [compound 475, (2S,4R)-1-((2S)-2-(3-(4-((1-(((1r,3r)-3-((4-(3-(3-amino-6-(2-hydroxyphenyl)pyridazin-4-yl)-3,8-diazabicyclo[3.2.1]octan-8-yl)pyridin-2-yl)oxy)cyclobutyl)methyl)piperidin-4-yl)oxy)piperidin-1-yl)isoxazol-5-yl)-3-methylbutanoyl)-4-hydroxy-N-((S)-1-(6-(4-methylthiazol-5-yl)pyridin-3-yl)ethyl)pyrrolidine-2-carboxamide] |  |  | DC50 [4]: > 30 nM
9 | COc1nc(-c2scnc2C)ccc1[C@H](C)NC(=O)[C@@H]1C[C@@H](O)CN1C(=O)[C@@H](c1cc(OCCN2CCC(O[C@H]3C[C@H](Oc4cc(N5C6CCC5CN(c5cc(-c7ccccc7O)nnc5N)C6)ccn4)C3)CC2)no1)C(C)C [compound 279, (2S,4R)-1-((2R)-2-(3-(2-(4-((1r,3R)-3-((4-(3-(3-amino-6-(2-hydroxyphenyl)pyridazin-4-yl)-3,8-diazabicyclo[3.2.1]octan-8-yl)pyridin-2-yl)oxy)cyclobutoxy)piperidin-1-yl)ethoxy)isoxazol-5-yl)-3-methylbutanoyl)-4-hydroxy-N-((S)-1-(2-methoxy-6-(4-methylthiazol-5-yl)pyridin-3-yl)ethyl)pyrrolidine-2-carboxamide] | < 2.5 | > 75 | 
10 | Cc1ncsc1-c1ccc([C@H](C)NC(=O)[C@@H]2C[C@@H](O)CN2C(=O)[C@@H](c2cc(OCCC3CCN(C(=O)[C@H]4C[C@@H](CN5CCC([C@H](C)n6cc(-c7cc(-c8ccccc8O)nnc7N)cn6)CC5)C4)CC3)no2)C(C)C)cc1 [compound 450, (2S,4R)-1-((R)-2-(3-(2-(1-((1R,3S)-3-((4-((S)-1-(4-(3-amino-6-(2-hydroxyphenyl)pyridazin-4-yl)-1H-pyrazol-1-yl)ethyl)piperidin-1-yl)methyl)cyclobutane-1-carbonyl)piperidin-4-yl)ethoxy)isoxazol-5-yl)-3-methylbutanoyl)-4-hydroxy-N-((S)-1-(4-(4-methylthiazol-5-yl)phenyl)ethyl)pyrrolidine-2-carboxamide] |  |  | Dmax [3]: > 75%; DC50 [4]: 10 to 30 nM

Reference: US12539292B2, “BRM targeting compounds and associated methods of use” (Arvinas Operations, Inc., priority 2018, dated 2026)
